According to patent publication US8158625B2, “Bicyclic indole-pyrimidine PI3K inhibitor compounds selective for P110 delta, and methods of use” (Genentech, Inc., priority 2009, dated 2012):

How the values were obtained:
[1] = biological target: T1, p110 delta (Homo sapiens, UniProt O00329); assay: PI3K isoform inhibition assay (fluorescence polarization), p110 delta; assay type: biochemical; conditions: p110 delta binding IC50, Example 901
T1 construct: purchased Upstate Group, Millipore; Dundee, UK
T1 sequence (O00329 whole entry, canonical isoform): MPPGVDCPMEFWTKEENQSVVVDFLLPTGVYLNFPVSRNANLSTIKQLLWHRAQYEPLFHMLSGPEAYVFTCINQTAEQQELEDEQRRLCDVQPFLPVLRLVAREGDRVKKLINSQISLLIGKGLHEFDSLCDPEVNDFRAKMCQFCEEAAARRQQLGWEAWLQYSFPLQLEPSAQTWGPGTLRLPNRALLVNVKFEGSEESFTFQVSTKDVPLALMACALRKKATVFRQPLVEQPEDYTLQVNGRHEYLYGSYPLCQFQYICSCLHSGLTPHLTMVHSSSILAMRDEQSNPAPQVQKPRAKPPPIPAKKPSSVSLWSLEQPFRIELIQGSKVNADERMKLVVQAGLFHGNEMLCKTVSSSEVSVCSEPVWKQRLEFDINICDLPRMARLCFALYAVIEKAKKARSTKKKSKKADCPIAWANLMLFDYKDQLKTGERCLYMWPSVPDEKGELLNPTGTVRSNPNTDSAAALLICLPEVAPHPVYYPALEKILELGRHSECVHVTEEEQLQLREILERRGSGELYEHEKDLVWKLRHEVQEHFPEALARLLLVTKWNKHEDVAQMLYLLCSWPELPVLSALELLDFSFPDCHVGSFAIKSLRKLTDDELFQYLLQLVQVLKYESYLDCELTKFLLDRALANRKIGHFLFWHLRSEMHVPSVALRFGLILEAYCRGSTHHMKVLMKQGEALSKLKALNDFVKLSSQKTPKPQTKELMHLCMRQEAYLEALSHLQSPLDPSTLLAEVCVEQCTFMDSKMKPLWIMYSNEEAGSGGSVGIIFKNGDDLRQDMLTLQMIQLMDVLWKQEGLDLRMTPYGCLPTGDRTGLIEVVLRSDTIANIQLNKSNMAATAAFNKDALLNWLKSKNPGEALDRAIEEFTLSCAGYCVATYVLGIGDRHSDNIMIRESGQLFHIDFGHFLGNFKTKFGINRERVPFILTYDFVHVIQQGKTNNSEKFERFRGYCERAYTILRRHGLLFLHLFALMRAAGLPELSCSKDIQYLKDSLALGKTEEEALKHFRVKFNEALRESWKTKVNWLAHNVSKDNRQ
T1 sequence (P27986 whole entry partner, canonical isoform): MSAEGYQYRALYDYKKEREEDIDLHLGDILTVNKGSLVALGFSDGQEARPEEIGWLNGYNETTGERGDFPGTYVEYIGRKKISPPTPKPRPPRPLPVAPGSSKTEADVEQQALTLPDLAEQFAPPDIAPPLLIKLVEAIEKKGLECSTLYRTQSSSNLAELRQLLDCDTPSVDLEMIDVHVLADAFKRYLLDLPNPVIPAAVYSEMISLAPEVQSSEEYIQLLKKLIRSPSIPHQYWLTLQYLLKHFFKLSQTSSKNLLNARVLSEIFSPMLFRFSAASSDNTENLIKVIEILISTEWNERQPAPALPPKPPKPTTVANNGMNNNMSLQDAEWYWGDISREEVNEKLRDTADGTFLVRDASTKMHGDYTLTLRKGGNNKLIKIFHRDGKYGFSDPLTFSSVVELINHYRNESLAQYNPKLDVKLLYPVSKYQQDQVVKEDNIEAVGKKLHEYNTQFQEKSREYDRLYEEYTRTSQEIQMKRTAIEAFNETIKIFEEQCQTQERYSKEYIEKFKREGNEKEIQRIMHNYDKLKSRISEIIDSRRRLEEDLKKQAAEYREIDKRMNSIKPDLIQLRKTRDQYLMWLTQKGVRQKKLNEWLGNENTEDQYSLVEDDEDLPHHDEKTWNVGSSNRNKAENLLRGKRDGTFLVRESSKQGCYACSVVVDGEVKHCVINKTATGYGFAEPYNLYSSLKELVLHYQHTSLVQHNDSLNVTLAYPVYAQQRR
Description: (§1) PI3K enzymatic activity was assayed by measuring the amount of product phosphatidylinositol 3,4,5-phosphate (PIP3) formed from substrate 4,5 phosphatidylinositol 4,5-phosphate (PIP2) using a fluorescence polarization displacement assay. The decrease in fluorescence polarization of a fluorescent PIP3 probe is measured as it is displaced from a PIP3-binding protein GRP-1 detector by PI3K-catalyzed product. Assays were conducted in 384-well black Proxiplates in the presence of 10 mM Tris (pH 7.5), 50 mM NaCl, 4 mM MgCl2, 5% glycerol, 25 μM ATP, 10 μM PIP2 (Echelon Biosciences), 0.05% 3-[(3-cholamidopropyl)dimethylammonio]-1-propanesulfonate, 1 mM dithiothreitol, and 2% DMSO. The kinase reactions were initiated by the addition of 40 ng/mL p110α/p85α, 300 ng/mL p110β/p85α, 40 ng/mL p110γ, or 40 ng/mL p110δ/p85α (Upstate Group, Millipore; Dundee, UK), and 10 μM PIP2 (Echelon Biosciences) to the wells. The reactions were stopped at timepoints that yielded a fixed change in fluorescence polarization consistent with initial rate conditions (typically 30 minutes), by the addition of 12.5 mM EDTA, 100 nM GRP-1 detector, and 5 nM tetramethylrhodamine-labeled PIP3 (TAMRA-PIP3; Echelon Biosciences). After 60 minutes of incubation at room temperature to allow equilibration of labeled and unlabeled PIP3 binding, the parallel and perpendicular components of the fluorescence emissions from each sample were measured at an excitation wavelength of 530 nm and an emission wavelength of 590 nm using an Envision fluorescent plate reader with a rhodamine filter (PerkinElmer Life and Analytical Sciences; Wellesley, Mass.). The assay is capable of detecting 0.1-2.0 μM PIP3 product. The IC50 values were obtained by fitting the dose-dependent inhibition data to a 4-parameter equation using Assay Explorer software (MDL, San Ramon, Calif.). […]
Recombinant PI3K p110 isoforms alpha, beta, and delta may be prepared and purified according to US 2008/0275067 from recombinant PI3K heterodimeric complexes consisting of a p110 catalytic subunit and a p85 regulatory subunit overexpressed using the BAC-TO-BAC® HT baculovirus expression system (GIBCO/BRL), and then purified for use in biochemical assays. The four Class I PI 3-kinases are cloned into baculovirus vectors as follows:
p110 delta: A FLAG™-tagged (Eastman Kodak Co., U.S. Pat. No. 4,703,004; U.S. Pat. No. 4,782,137; U.S. Pat. No. 4,851,341) version of human p110.delta (Chantry et al., J. Biol. Chem. (1997) 272:19236-41) is subcloned using standard recombinant DNA techniques into the BamH1-Xba1 site of the insect cell expression vector pFastbac HTb (Life Technologies, Gaithersburg, Md.), such that the clone is in frame with the His tag of the vector.

[2] = biological target: T2, p110 alpha (Homo sapiens, UniProt P42336); assay: PI3K isoform inhibition assay (fluorescence polarization), p110 alpha, used for delta/alpha selectivity; conditions: ratio of biochemical IC50 values
T2 construct: purchased Upstate Group, Millipore; Dundee, UK
T2 sequence (P42336 whole entry, canonical isoform): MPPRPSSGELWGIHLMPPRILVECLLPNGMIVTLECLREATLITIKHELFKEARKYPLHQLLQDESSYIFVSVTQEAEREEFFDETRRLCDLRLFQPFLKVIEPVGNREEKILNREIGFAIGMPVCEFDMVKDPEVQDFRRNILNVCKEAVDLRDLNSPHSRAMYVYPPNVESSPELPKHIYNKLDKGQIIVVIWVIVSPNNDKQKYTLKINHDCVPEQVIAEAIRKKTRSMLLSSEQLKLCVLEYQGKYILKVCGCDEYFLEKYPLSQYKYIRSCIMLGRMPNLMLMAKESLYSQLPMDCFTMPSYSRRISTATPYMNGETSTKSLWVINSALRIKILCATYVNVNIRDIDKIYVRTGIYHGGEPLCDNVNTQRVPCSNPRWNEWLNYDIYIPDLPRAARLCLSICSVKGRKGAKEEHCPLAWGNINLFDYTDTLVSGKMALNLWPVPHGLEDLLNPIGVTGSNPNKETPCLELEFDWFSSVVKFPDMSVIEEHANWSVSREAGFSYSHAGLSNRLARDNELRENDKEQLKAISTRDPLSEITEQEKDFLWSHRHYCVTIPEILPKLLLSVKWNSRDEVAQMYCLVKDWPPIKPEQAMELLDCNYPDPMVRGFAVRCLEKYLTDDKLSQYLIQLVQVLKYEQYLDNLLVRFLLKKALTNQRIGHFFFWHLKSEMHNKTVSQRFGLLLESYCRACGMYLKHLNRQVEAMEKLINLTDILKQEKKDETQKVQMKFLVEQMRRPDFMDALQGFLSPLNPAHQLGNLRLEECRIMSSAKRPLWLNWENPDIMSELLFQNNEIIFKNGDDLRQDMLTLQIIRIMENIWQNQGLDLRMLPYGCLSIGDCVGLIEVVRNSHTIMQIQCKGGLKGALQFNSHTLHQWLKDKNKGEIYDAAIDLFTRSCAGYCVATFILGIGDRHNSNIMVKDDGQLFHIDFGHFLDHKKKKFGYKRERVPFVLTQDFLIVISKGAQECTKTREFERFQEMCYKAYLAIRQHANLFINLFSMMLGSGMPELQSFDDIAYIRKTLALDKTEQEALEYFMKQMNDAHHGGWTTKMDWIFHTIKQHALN
T2 sequence (P27986 whole entry partner, canonical isoform): as the sequence (P27986 whole entry partner, canonical isoform) above
Description: as §1
The same protocol was used to establish IC50 values for p110α (alpha) PI3K binding. […]

[3] = tested on: production of CD69 by B lymphocytes in human whole blood activated with goat F(ab')2 anti-human IgM; assay: CD69 Whole Blood Assay; assay type: cell-based; conditions: Lymphocyte, anti-IgM stimulated, CD69 positive of CD20 positive cells, 20 hours
Description: There is good evidence that B-cells play a key role in the pathogenesis of autoimmune and/or inflammatory disease. Protein-based therapeutics that deplete B cells such as Rituxan are effective against autoantibody-driven inflammatory diseases such as rheumatoid arthritis (Rastetter et al. (2004) Annu Rev Med 55:477). CD69 is the early activation marker in leukocytes including T cells, thymocytes, B cells, NK cells, neutrophils, and eosinophils. The CD69 human whole blood assay (Example 903) determines the ability of compounds to inhibit the production of CD69 by B lymphocytes in human whole blood activated by crosslinking surface IgM with goat F(ab′)2 anti-human IgM.
Human blood is obtained from healthy volunteers, with the following restrictions: 1 week drug-free, non-smokers. Blood (approximately 20 mls to test 8 compounds) is collected by venipuncture into Vacutainer tubes with sodium heparin.
Solutions of Formula I compounds at 1000 or 2000 μM in PBS (20×), are diluted by three-fold serial dilutions in 10% DMSO in PBS for a nine point dose-response curve. An aliquot of 5.5 μl of each compound is added in duplicate to a 2 ml 96-well plate; 5.5 μl of 10% DMSO in PBS is added as control and no-stimulus wells. Human whole blood-HWB (100 μl) is added to each well. After mixing the plates are incubated at 37° C., 5% CO2, 100% humidity for 30 minutes. Goat F(ab′)2 anti-human IgM (10 μl of a 500 μg/ml solution, 50 μg/ml final) is added to each well (except the no-stimulus wells) with mixing and the plates are incubated for an additional 20 hours. At the end of the 20 hour incubation, samples are incubated with florescent labeled antibodies for 30 minutes, at 37° C., 5% CO2, 100% humidity. Include induced control, unstained and single stains for compensation adjustments and initial voltage settings. Samples are then lysed with Pharmingen Lyse according to the manufacturer's instructions. Samples are then transferred to a 96 well plate suitable to be run on the AMS 96 well system on the BD Calibur FACs machine. Data acquired and Mean Fluorescence Intensity values were obtained using Cell Quest Software. Results are initially analyzed by FACS analysis software (Flow Jo). […] The IC50 values are calculated by ActivityBase using Xlfit version 3, equation 201.

IC50 [1] [nM] | IC50 p110 alpha/IC50 p110 delta [2] | IC50 [3] [nM] | Structure (SMILES)
3.4 | 238 |  | CC(C)(C(N)=O)N1CCN(Cc2cc3nc(-c4c(C#N)[nH]c5ccccc45)nc(N4CCOCC4)c3s2)CC1 [Compound 129, 2-(4-((2-(2-cyano-1H-indol-3-yl)-4-morpholinothieno[3,2-d]pyrimidin-6-yl)methyl)piperazin-1-yl)-2-methylpropanamide]
616 | >160 |  | Cn1c(CN2CCC(C(C)(C)O)CC2)nc2c(N3CCOCC3)nc(-c3c[nH]c4cc(F)ccc34)nc21 [Compound 124, 2-(1-((2-(6-fluoro-1H-indol-3-yl)-9-methyl-6-morpholino-9H-purin-8-yl)methyl)piperidin-4-yl)propan-2-ol]
22 | 37 |  | CN(C)C1CCN(Cc2cc3nc(-n4ccc5cc(O)ccc54)nc(N4CCOCC4)c3s2)CC1 [Compound 132, 1-(6-((4-(dimethylamino)piperidin-1-yl)methyl)-4-morpholinothieno[3,2-d]pyrimidin-2-yl)-1H-indol-5-ol]
20 | 265 | 4600 | Cn1c(CN2CCC(C(C)(C)O)CC2)nc2c(N3CCOCC3)nc(-n3c(C#N)cc4ccccc43)nc21 [Compound 136, 1-(8-((4-(2-hydroxypropan-2-yl)piperidin-1-yl)methyl)-9-methyl-6-morpholino-9H-purin-2-yl)-1H-indole-2-carbonitrile]
29 | 186 | 891 | COCc1cc2ccccc2n1-c1nc(N2CCOCC2)c2nc(CN3CCC(C(C)(C)O)CC3)n(C)c2n1 [Compound 127, 2-(1-((2-(2-(methoxymethyl)-1H-indol-1-yl)-9-methyl-6-morpholino-9H-purin-8-yl)methyl)piperidin-4-yl)propan-2-ol]
102 | 13 |  | CN(C)C1CCN(Cc2cc3nc(-c4c[nH]c5ccc(F)cc45)nc(N4CCOCC4)c3s2)CC1 [Compound 113, 1-((2-(5-fluoro-1H-indol-3-yl)-4-morpholinothieno[3,2-d]pyrimidin-6-yl)methyl)-N,N-dimethylpiperidin-4-amine]
7.5 | 96 | 188 | CN(C)[C@@H]1CCN(Cc2nc3c(N4CCOCC4)nc(-c4c[nH]c5ccccc45)nc3n2C)C[C@@H]1F [Compound 122, (3S,4R)-1-((2-(1H-indol-3-yl)-9-methyl-6-morpholino-9H-purin-8-yl)methyl)-3-fluoro-N,N-dimethylpiperidin-4-amine]
 | 101 | 17.3 | CN(C)C1CCN(Cc2cc3nc(-c4c[nH]c5ccccc45)nc(N4CCOCC4)c3s2)CC1 [Compound 101, 1-((2-(1H-indol-3-yl)-4-morpholinothieno[3,2-d]pyrimidin-6-yl)methyl)-N,N-dimethylpiperidin-4-amine]
8.4 | 63 |  | CC(C)(OCCN1CCCC1)c1cc2nc(-c3c[nH]c4ccccc34)nc(N3CCOCC3)c2s1 [Compound 125]
23.6 | 68 | 950 | Cc1cc2cc(F)ccc2n1-c1nc(N2CCOCC2)c2sc(CN3CCC(N(C)C)CC3)cc2n1 [Compound 119, 1-((2-(5-fluoro-2-methyl-1H-indol-1-yl)-4-morpholinothieno[3,2-d]pyrimidin-6-yl)methyl)-N,N-dimethylpiperidin-4-amine]
55 | 25 |  | O=C1COC2(CCN(Cc3cc4nc(-c5c[nH]c6ccccc56)nc(N5CCOCC5)c4s3)CC2)CN1 [Compound 116, 9-((2-(1H-indol-3-yl)-4-morpholinothieno[3,2-d]pyrimidin-6-yl)methyl)-1-oxa-4,9-diazaspiro[5.5]undecan-3-one]
2 | 198 | 84 | c1ccc2c(-c3nc(N4CCOCC4)c4nc(CN5CC(N6CCOCC6)C5)sc4n3)c[nH]c2c1 [Compound 117, 4-(5-(1H-indol-3-yl)-2-((3-morpholinoazetidin-1-yl)methyl)thiazolo[5,4-d]pyrimidin-7-yl)morpholine]
47.7 | 105 | 623 | Cn1c(CN2CCC(N3CCOCC3)CC2)nc2c(N3CCOCC3)nc(-c3c[nH]c4ccccc34)nc21 [Compound 104, 4-(1-((2-(1H-indol-3-yl)-9-methyl-6-morpholino-9H-purin-8-yl)methyl)piperidin-4-yl)morpholine]
10.4 | 54 |  | CN(C)C1CCN(Cc2cc3nc(-n4ccc5ccccc54)nc(N4CCOCC4)c3s2)CC1 [Compound 103, 1-((2-(1H-indol-1-yl)-4-morpholinothieno[3,2-d]pyrimidin-6-yl)methyl)-N,N-dimethylpiperidin-4-amine]
20.8 | 34 | 1700 | CN(C)C1CCN(Cc2cc3nc(N4CCc5ccccc54)nc(N4CCOCC4)c3s2)CC1 [Compound 102, 1-((2-(indolin-1-yl)-4-morpholinothieno[3,2-d]pyrimidin-6-yl)methyl)-N,N-dimethylpiperidin-4-amine]
